Entries after “also recorded” stand apart in the source; their conditions may differ.
Tests used:
[1] = tested on: non-virally induced tumors; assay: Tumor growth of non-virally induced human xenografts in nude mice; assay type: in vivo; conditions: cidofovir intra-tumor 60 mg/kg daily 5 days + irradiation 7 Gy on day 3 and 5
Experimental: (§1) In vivo data are reported as the percentage of original (day 0) tumor volume and plotted as fractional tumor volume±S.E. Statistical significance was determined by Kruskal/Wallis and Mann-Withney U tests.
(§2) Female Swiss nu/nu mice were housed throughout experiments in sterile isolators and fed ad libitum with irradiated food (UAR, Villemoisson/Orge, France) and filtered water. Experiments were performed according to the regulation n°86/609/CEE of the European Community. Cell lines were established in vivo in Swiss athymic mice by subcutaneous injection in the right flank of 5×10^6 cells per animal and subsequently maintained in vivo by sequential passages in animals aged 6 to 8 weeks. Nude mice bearing 500-1000 mm3 tumors were used for in vivo experiments. Two types of control were used including both injection of PBS (intra-tumor and intravenous (IV)), irradiation alone, or chemotherapy alone.
Irradiation of cells was performed using a ^137Cs γ-rays source at a dose rate of 1.45 Gy.min^−1. […] Quantification of radiosensitivity was obtained by the surviving fraction at 2 Gy (SF2). Cell survival was also assessed by using proliferation tests (incorporation of tritiated thymidine and MTT). […]
The example presented herewith also relates to the combination of cidofovir with irradiation which was evaluated in vivo in various human viral-associated and also in non viral associated human cancers. […]

E6 [2] = assay: Immunoblot densitometry of E6 in HEP2 cells; assay type: cell-based, HPV; conditions: HEP2, Cidofovir 10 μg/ml, scored 1 without Cidofovir
Experimental: (§3) a2b2 HEP2 (a) and HTB33 (b) cells were cultured in the presence or absence of Cidofovir (10 μg/ml) for 3 and 6 days, and cells were collected in exponential phase, lysed and total protein were immunoblotted with the Ab-1 anti-E7, C1P5 […], and DO7 anti-p53. The blots were stripped and re-probed with a monoclonal β-actin antibody.
(§4) To prepare total proteins, cells lysates were extracted with lysis buffer 50 mM tris, pH 8, 120 mM NaCl, 0,1% SDS, and 0,5% NP-40. The protein concentration in the soluble fraction was determined by using a BioRad protein assay reagent. The viral oncoprotein LMP1 was detected by immunoblotting with a monoclonal anti-LMP1 antibody (clone CS1,CS2,CS3 & CS4 cocktail, RDI). The following antibodies were used: anti-Bcl2 (clone 100 Santa Cruz Biotechnology), anti-Bax (clone B-9, Santa Cruz, anti-E6 (clone CIP5, abcam), anti-E7 (clone Ab-1, oncogene), anti-p53 (clone DO7, Dako). Anti β-actin (clone AC-40, Sigma) was used to control protein loading. Autoradiograms of the Western blot were scanned with the Gil doc 1000 image scanner (Bio-rad, Hercules, Calif.) and densitometric analysis of the bands was performed using the molecular analyst software program (Bio-rad, Hercules, Calif.).

[3] = tested on: Ramos, HTB31, and SCC97 cells; assay: Clonogenic survival and proliferation test with irradiation, non virus-containing cells; assay type: cell-based, human; conditions: cidofovir 1 to 10 μg/ml combined with irradiation, non virus-related cells
Experimental: (§5) Irradiation of cells was performed using a ^137Cs γ-rays source at a dose rate of 1.45 Gy.min^−1. Briefly survival curves were obtained by irradiating cells (0 to 6 Gy). The linear-quadratic model was used for fitting survival curves. Quantification of radiosensitivity was obtained by the surviving fraction at 2 Gy (SF2). Cell survival was also assessed by using proliferation tests (incorporation of tritiated thymidine and MTT). Irradiation of animals was performed using a 200 kv apparatus.
(§6) It was studied in EBV+ human carcinoma C15 cells, EBV+ lymphoma Raji cells, 2 HPV+ carcinoma HTB33 and HEP2 cells. The effect of the combination was also studied in 3 human cell lines lacking the viral infection namely Ramos (lymphoma) HTB31 and SCC97 (carcinoma) cells.
(§7) For each cell line, several concentrations of cidofovir were used in vitro in combination with irradiation (between 1 and 10 μg/ml). The effect of the combined treatment was evaluated using both a proliferation test and a clonogenic assay for cell survival.

LMP-1 [4] = assay: Western blot of LMP-1 in RAJI cells; assay type: cell-based, EBV
Experimental: b, RAJI cells were cultured in the presence or absence of Ciodofovir (10 μg/ml). […] For C15, at day 7 portions of tumors where lysed in RIPA buffer and protein extracts were immunoblotted with anti-LMP-1 antibody. The blot from b was stripped and re-probed with a monoclonal β-actin antibody.
as §4

C15 tumors = assay: Apoptosis assay (FACS, propidium iodide) in C15; assay type: in vivo, human; conditions: C15, Cidofovir combined with irradiation
Experimental: (§8) a, RAJI cells were cultured in the presence of Cidofovir (5 and 10 μg/ml) and irrediated […] with 3 Gy and then assayed for apoptosis by FACS analysis. C15 tumors were injected intra-tumorally for 5 days with Cidofovir ([…]) and received 7 Gy on day 3 and 5. Animals were sacrified on day 7 and tumors were dissected and prepared for FACS analysis of propidium-iodide nuclei staining as described above.
(§9) The cell cycle distribution was estimated by staining ethanol-fixed cells with propidium iodide and monitoring by FACScan flow cytometer (Becton Dickinson) using cellQuest software. Briefly, 1×10^6 cells were cultured without or with 5 and 10 μg/ml of Cidofovir, 24 hours later cells were irradiated with 3 and 6 Gy and collected 12 and 24 hours after irradiation. The percentage of apoptotic cells was determined by sub-G1 peak.

HPV+ tumors = assay: Histological sections of HPV+ tumors; assay type: in vivo, mice; conditions: Cidofovir combined with irradiation, 2 HPV+ models (data not shown)
Excerpt: At 10 day after treatment, mice with HPV+ tumors from all groups were sacrified and tumors were excised and fixed in 10% neutral buffered formalin (NBF). The sections from each group were heamatoxylin and eosin (H&E)-stained for histological analysis.

p53 [5] = assay: Immunoblot densitometry of p53 in HEP2 cells; assay type: cell-based, human; conditions: HEP2, Cidofovir 10 μg/ml, scored 1 without Cidofovir
Experimental: as §3, §4

Bcl2 = assay: Western blot of Bcl2 in EBV+ cells; assay type: cell-based, human; conditions: Cidofovir 10 μg/ml, 48 hrs
Experimental: (§10) b, RAJI cells were cultured in the presence or absence of Ciodofovir (10 μg/ml). At 48 hrs, cells were harvested and analyzed for the expression of LMP1, bcl-2 and bax by Western-blot. For C15, at day 7 portions of tumors where lysed in RIPA buffer and protein extracts were immunoblotted with anti-LMP-1 antibody. The blot from b was stripped and re-probed with a monoclonal β-actin antibody.
as §4

RAJI cells = assay: Apoptosis assay (FACS, sub-G1 peak) in RAJI cells; assay type: cell-based, human; conditions: Cidofovir 10 μg/ml combined with irradiation (3 and 6 Gy)
Experimental: as §8, §9

[6] = tested on: cell lines derived from human cervical carcinoma; conditions: cited from earlier work
E6 [7] = assay: Immunoblot densitometry of E6 in HTB33 cells; assay type: cell-based, HPV; conditions: HTB33, Cidofovir 10 μg/ml, scored 1 without Cidofovir
Experimental: as §3, §4

[8] = tested on: cervical carcinoma xenografts; conditions: cited from earlier work
E7 = assay: Immunoblot of E7 in HPV+ HTB33 and HEP2 cells; assay type: cell-based; conditions: HPV+ cells exposed to Cidofovir 10 μg/ml
Experimental: as §3, §4

LMP-1 [9] = assay: Immunoblot of LMP-1 in C15 tumors; assay type: in vivo, EBV; conditions: intra-tumoral Cidofovir 50 mg/kg/day for 5 days, day 7
Experimental: as §8, §10
To prepare total proteins, cells lysates were extracted with lysis buffer 50 mM tris, pH 8, 120 mM NaCl, 0,1% SDS, and 0,5% NP-40. The protein concentration in the soluble fraction was determined by using a BioRad protein assay reagent. The viral oncoprotein LMP1 was detected by immunoblotting with a monoclonal anti-LMP1 antibody (clone CS1,CS2,CS3 & CS4 cocktail, RDI). […]

EBV and HPV cancer cells = assay: Radiation-induced DNA repair by Fluorescence In Situ Hybridization (FISH); assay type: cell-based, human; conditions: FISH (data not shown)
Excerpt: Cidofovir is a potent inhibitor of the replication of EBV and HPV in cell culture. In addition, the incorporation into the cellular DNA of the infected cell may disrupt the genomic integrity and enhance susceptibility to apoptosis or necrosis.

[10] = tested on: C15, Raji, HEP2, HTB33 tumor xenografts; assay: Tumor growth of virus-positive human xenografts in nude mice; assay type: in vivo
Experimental: as §1, §2, §5
The example presented herewith also relates to the combination of cidofovir with irradiation which was evaluated in vivo in various human viral-associated and also in non viral associated human cancers. The effect of cidofovir alone or combined with irradiation was studied in vivo in nude mice bearing 500-1000 mm3 tumor xenografts. The treatment consisted of 60 mg/kg daily of cidofovir intra-tumor injection for 5 days. In the combined group, irradiation (7 Gy) was performed on day 3 and 5 of cidofovir.

[11] = tested on: EBV+ and HPV+ cell lines (C15, Raji, HTB33, HEP2); assay: Clonogenic survival and proliferation test with irradiation, EBV+ and HPV+ cell lines; assay type: cell-based, human; conditions: cidofovir 1 to 10 μg/ml combined with irradiation, virus-related cells
Experimental: as §5, §6, §7

human cancer cells = assay: Combination with chemotherapeutic drugs, tumor cell growth; assay type: cell-based; conditions: in vitro
Experimental: Similar experiments combining a nucleoside analogue with cytotoxic agents other than irradiation were performed (chemotherapeutic drugs, cytokines). The example presented herewith relates to the combination of cidofovir with chemotherapeutic drugs which was evaluated in vitro and in vivo in various virus-associated and non virus-associated human cancers.

Bax = assay: Western blot of Bax in EBV+ cells; assay type: cell-based, human; conditions: Cidofovir 10 μg/ml, 48 hrs
Experimental: as §10, §4

p53 [12] = assay: Immunoblot densitometry of p53 in HTB33 cells; assay type: cell-based, human; conditions: HTB33, Cidofovir 10 μg/ml, scored 1 without Cidofovir
Experimental: as §3, §4

Nc1ccn(C[C@@H](CO)OCP(=O)(O)O)c(=O)n1 [Cidofovir, (S)-1-[3-hydroxy-2-(phosphonomethoxy)propyl]cytosine]
tumor growth [1]: dramatically reduced the growth delay
E6 band density score (E6 [2]; 3 days): 0.7
E6 band density score (E6 [2]; 6 days): 0.25
radiosensitization (cell survival) [3]: increased cell kill
radiosensitization (cell survival) ([3]; listed as cidofovir): markedly radiosensitized
LMP-1 expression (LMP-1 [4]; 24 hours after exposure (data not shown)): significant inhibition
LMP-1 expression (LMP-1 [4]; RAJI cells, Cidofovir 10 μg/ml, 48 hrs): marked decrease
apoptosis (C15 tumors): marked increase
tumor necrosis (histological sections) (HPV+ tumors): increased tumor necrosis
P53 density score (p53 [5]; 3 days): 1.2
P53 density score (p53 [5]; 6 days): 1.65
Bcl2 expression (Bcl2): downregulation
apoptosis (RAJI cells): marked increase
cell proliferation [6]: inhibited in a concentration-dependent and in a time-dependent fashion
E6 band density score (E6 [7]; 3 days): 0.67
E6 band density score (E6 [7]; 6 days): 0.32
tumor growth ([8]; administered topically or systemically, nontoxic concentrations): no reduction of tumor growth
tumor size ([8]; injected intratumorally, compared to placebo group): statistically significant reduction in tumor size
expression of the viral oncoprotein E7 (E7): decreased expression
LMP-1 expression (LMP-1 [9]): marked decrease
radiation-induced DNA repair at the chromosomal level (EBV and HPV cancer cells): no significant change
anti-tumor effect, sub-cutaneous versus intra-tumor administration ([10]; C15, sub-cutaneous 50 mg/kg cidofovir in combination with irradiation): anti-tumor effect of the same magnitude
tumor growth delay ([10]; cidofovir alone, 60 mg/kg daily intra-tumor for 5 days): weak growth delay
tumor growth ([10]; cidofovir intra-tumor 60 mg/kg daily 5 days + irradiation 7 Gy on day 3 and 5): dramatically reduced the growth delay; also recorded: major effect on tumor growth
complete remission of tumors ([10]; combined treatment, 30 to 40 days after the treatment): nearly all the tumors were found to be in complete remission
radiosensitization (decrease of SF2, surviving fraction at 2 Gy) [11]: increased cell kill
radiosensitization (decrease of SF2, surviving fraction at 2 Gy) ([11]; listed as cidofovir): pronounced radiosensitization
effect on tumor cell growth in combination with VP16 (human cancer cells; VP16 5 μg/ml): synergic inhibitory effect
effect on tumor cell growth in combination with cis platinum (human cancer cells; cis platinum 2.5 μg/ml): synergic inhibitory effect
Bax expression (Bax): up-regulation
P53 density score (p53 [12]; 3 days): 2.1
P53 density score (p53 [12]; 6 days): 3.7

Reference: patent US6723712B2, “Antiviral agent for use in treatment of cancer” (Institut Gustave Roussy, priority 1999, dated 2004)
